{"source": "patent US10968232B2", "about": "(Merck Sharp & Dohme Corp., priority 2016, dated 2021)"}
{"target": "T1, human GPR40 (Homo sapiens, UniProt O14842)", "T1 construct": "expressed in transfected cells", "T1 sequence (O14842 whole entry)": "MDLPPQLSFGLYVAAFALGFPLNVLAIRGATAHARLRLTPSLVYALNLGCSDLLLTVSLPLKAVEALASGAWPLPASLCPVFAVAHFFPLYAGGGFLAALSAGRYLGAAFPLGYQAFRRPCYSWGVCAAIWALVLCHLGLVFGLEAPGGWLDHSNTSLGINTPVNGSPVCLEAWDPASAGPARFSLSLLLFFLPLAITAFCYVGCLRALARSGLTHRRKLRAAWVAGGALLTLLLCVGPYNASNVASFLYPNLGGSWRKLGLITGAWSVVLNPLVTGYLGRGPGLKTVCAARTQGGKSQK", "assay": "Inositol Phosphate Turnover (IP1) Assay", "type": "cell-based", "settings": "HEK cells stably expressing human GPR40; CisBio IP-One kit; 60 minutes at 37 degrees; read-out: Human IP1 EC50", "description": "(§1) Human GPR40 stable cell-lines were generated in HEK cells. The expression plasmids were transfected using lipofectamine (Life Technologies) following manufacturer's instructions. Stable cell-lines were generated following drug selection and single cell cloning. The assay was performed in 384-well format. HEK cells stably expressing human GPR40 were plated at 7500 cells per well in growth medium (DMEM/10% fetal calf serum). Cell plates were then incubated 16 hours at 37 degrees in a 5% CO2 incubator. Measurement of Inositol Phosphate Turnover (IP1) was performed using the CisBio IP-One kit (Part number 62IPAPEB). After the 16 hour incubation, the growth media was removed by centrifugation using the BlueWasher (AusWasher GUI Ver. v1.0.1.8) Protocol #21-“Light Dry” and 10 ul of stimulation buffer (prepared as described in the kit) was added to each well. In a separate plate, compounds were diluted in DMSO (200-fold over the final concentration in the assay well) and 50 nl was acoustically transferred to the appropriate well in the assay cell plate. The plates were then incubated for 60 minutes at 37 degrees in a 5% CO2 incubator. 10 ul of detection buffer (also prepared as described in the IP-One kit) was added to each well and the plates were incubated at room temperature for 60 minutes in the dark. The plates were then read in a Perkin Elmer EnVision or equivalent reader able to measure FRET. […] Data was normalized to % activity using a reference compound and EC50s determined using a standard 4-parameter fit.", "units": {"EC50": "nM"}}
{"smiles": "CC(c1cc(C(F)(F)F)cc(C(F)(F)F)c1)N1CCC2(CCc3ccc([C@H](C4CC4)[C@H](C)C(=O)O)cc3O2)CC1", "note": "(stereo partly drawn) [Example 54, (2S,3R)-3-(1′-(1-(3,5-bis(trifluoromethyl)phenyl)ethyl)spiro[chroman-2,4′-piperidin]-7-yl)-3-cyclopropyl-2-methylpropanoic Acid]", "EC50": 6.47}
{"smiles": "Cc1ccc(-c2ccc(OC(F)(F)F)c(C(C)N3CCC4(CCc5ccc([C@H](C6CC6)[C@H](C)C(=O)O)cc5O4)CC3)c2)o1", "note": "(mixture of isomers) [Example 122, (2S,3R)-3-cyclopropyl-2-methyl-3-(1′-((RS)-1-(5-(5-methylfuran-2-yl)-2-(trifluoromethoxy)phenyl)eth-yl)spiro[chroman-2,4′-piperidin]-7-yl)propanoic acid]", "EC50": 42.5}
{"smiles": "COc1ccc(C(F)(F)F)c(C(C)N2CCC3(CCc4ccc([C@H](C5CC5)[C@H](C)C(=O)O)cc4O3)CC2)n1", "note": "(single isomer, unassigned) [Example 104, sodium (2S,3R)-3-cyclopropyl-3-(1′-((R or S)-1-(6-methoxy-3-(trifluoromethyl)pyridin-2-yl)ethyl)spiro[chroman-2,4′-piperidin]-7-yl)-2-methylpropanoate]", "EC50": 59.8}
{"smiles": "CC(c1cc(OC(F)(F)F)ccc1F)N1CCC2(CCc3ccc([C@H](C4CC4)[C@H](C)C(=O)O)cc3O2)CC1", "note": "(mixture of isomers) [Example 29, (2S,3R)-3-cyclopropyl-3-(1′-((RS)-1-(2-fluoro-5-(trifluoromethoxy)phenyl)ethyl)spiro[chroman-2,4′-piperidin]-7-yl)-2-methylpropanoic acid]", "EC50": 115}
{"smiles": "C[C@H](C(=O)O)[C@H](c1ccc2c(c1)OC1(CC2)CC(NCc2cc(C(F)(F)F)ccc2C(F)(F)F)C1)C1CC1", "note": "(single isomer, unassigned) [Example 96]", "EC50": 12.3}
{"smiles": "C[C@H](C(=O)O)[C@H](c1ccc2c(c1F)OC1(CC2)CCN(Cc2cc(Cl)ccc2OC(F)F)CC1)C1CC1", "note": "[Example 20, (2S,3R)-3-(1′-(5-chloro-2-(difluoromethoxy)benzyl)-8-fluorospiro[chroman-2,4′-piperidin]-7-yl)-3-cyclopropyl-2-methylpropanoic Acid]", "EC50": 13.5}
{"smiles": "C[C@H](C(=O)O)[C@H](c1ccc2c(c1F)OC1(CC2)CCN(Cc2cc(C(F)(F)F)ccc2C(F)(F)F)CC1)C1CC1", "note": "[Example 8, (2S,3R)-3-(1′-(2,5-bis-(trifluoromethyl)benzyl)-8-fluoro-spiro[chroman-2,4′-piperidin]-7-yl)-3-cyclopropyl-2-methyl-propanoic acid]", "EC50": 20.6}
{"smiles": "Cc1nc(C(F)(F)F)c(CN2CCC3(CCc4ccc([C@H](C5CC5)[C@H](C)C(=O)O)cc4O3)CC2)s1", "note": "[Example 53, (2S,3R)-3-cyclopropyl-2-methyl-3-(1′-((2-methyl-4-(trifluoromethyl)thiazol-5-yl)methyl)spiro[chroman-2,4′-piperidin]-7-yl)propanoic Acid]", "EC50": 107}
{"smiles": "C[C@H](C(=O)O)[C@H](c1ccc2c(c1)OC1(CCCN([C@@H](C)c3cc(C(F)(F)F)ccc3C(F)(F)F)C1)CC2)C1CC1", "note": "(single isomer, unassigned) [Example 75, (2S,3R)-3-((S or R)-1′-((S)-1-(2,5-bis (trifluoromethyl)phenyl)-ethyl)spiro[chroman-2,3′-piperidin]-7-yl)-3-cyclopropyl-2-methylpropanoic acid]", "EC50": 0.374}
{"smiles": "C[C@H](C(=O)O)[C@H](c1ccc2c(c1)OC1(CC2)CCN(S(=O)(=O)c2cc(Cl)ccc2Cl)CC1)C1CC1", "note": "[Example 46, (2S,3R)-3-cyclopropyl-3-(1′-((2,5-dichloro-phenyl)sulfonyl)spiro [chroman-2,4′-piperidin]-7-yl)-2-methyl-propanoic acid]", "EC50": 22.6}
{"smiles": "COc1cc(C(C)N2CCC3(CCc4ccc([C@H](C5CC5)[C@H](C)C(=O)O)cc4O3)CC2)c(C(F)(F)F)cn1", "note": "(single isomer, unassigned) [Example 106, sodium (2S,3R)-3-cyclo-propyl-3-(1′-((R or S)-1-(2-methoxy-5-(trifluoro-methyl)pyridin-4-yl)ethyl)spiro[chroman-2,4′-piperidin]-7-yl)-2-methylpropanoate]", "EC50": 15.6}
{"smiles": "C[C@H](C(=O)O)[C@H](c1ccc2c(c1)OC1(CC2)[C@@H]2CC[C@H]1CN([C@H](C)c1cc(C(F)(F)F)ccc1C(F)(F)F)C2)C1CC1", "note": "(single isomer, unassigned) [Example 81]", "EC50": 102}
{"smiles": "C[C@H](C(=O)O)[C@H](c1ccc2c(c1)OC1(CC2)CCN(Cc2cc(C3CC3)ccc2OC(F)(F)F)CC1)C1CC1", "note": "[Example 76, (2S,3R)-3-cyclopropyl-3-(1′-(5-cyclopropyl-2-(trifluoromethoxy)benzyl)spiro[chroman-2,4′-piperidin]-7-yl)-2-methylpropanoic Acid]", "EC50": 11.7}
{"smiles": "C[C@H](C(=O)O)[C@H](c1ccc2c(c1)OC1(CCCN([C@H](C)c3cc(C(F)(F)F)ccc3C(F)(F)F)C1)CC2)C1CC1", "note": "(single isomer, unassigned) [Example 73, (2S,3R)-3-((R or S)-1′-((R)-1-(2,5-bis(trifluoromethyl)phenyl)ethyl)spiro-[chroman-2,3′-piperidin]-7-yl)-3-cyclopropyl-2-methylpropanoic Acid]", "EC50": 186}
{"smiles": "CC(c1cc(F)ccc1OC(F)(F)F)N1CCC2(CCc3ccc([C@H](C4CC4)[C@H](C)C(=O)O)c(F)c3O2)CC1", "note": "(stereo partly drawn) [Example 2, (2S,3R)-3-cyclopropyl-3-(8-fluoro-1′-(1-(5-fluoro-2-(trifluoro-methoxy)phenyl)ethyl)-spiro[chroman-2,4′-piperidin]-7-yl)-2-methylpropanoic acid]", "EC50": 3.29}
{"smiles": "COc1ncc(C(F)(F)F)cc1C(C)N1CCC2(CCc3ccc([C@H](C4CC4)[C@H](C)C(=O)O)cc3O2)CC1", "note": "(single isomer, unassigned) [Example 103, (2S,3R)-3-cyclopropyl-3-(1′-((S or R)-1-(2-methoxy-5-(trifluoro-methyl)pyridin-3-yl)ethyl)spiro[chroman-2,4′-piperidin]-7-yl)-2-methylpropanoic acid]", "EC50": 140}
{"smiles": "C[C@H](C(=O)O)[C@H](c1ccc2c(c1)OC1(CC2)CCC(N(C)c2cc(C(F)(F)F)ccc2C(F)(F)F)CC1)C1CC1", "note": "(stereo partly drawn) [Example 66, (2S,3R)-3-(4′-((2,5-bis (trifluoromethyl)phenyl) (methyl)amino)spiro [chroman-2,1′-cyclohexan]-7-yl)-3-cyclopropyl-2-methylpropanoic acid]", "EC50": 4.27}
{"smiles": "C[C@H](C(=O)O)[C@H](c1ccc2c(c1)OC1(CC2)CCN(c2cccc(C(F)(F)F)c2)CC1)C1CC1", "note": "[Example 41, (2S,3R)-3-cyclopropyl-2-methyl-3-(1′-(3-(trifluoromethyl)phenyl)spiro[chroman-2,4′-piperidin]-7-yl)propanoic acid]", "EC50": 12.9}
{"smiles": "C[C@H](C(=O)O)[C@H](c1ccc2c(c1)OC1(CC2)CCN(c2ccnc(C(F)(F)F)n2)CC1)C1CC1", "note": "[Example 56, sodium (2S3R)-3-cyclopropyl-2-methyl-3-(1′-(2-(trifluoromethyl)pyrimidin-4-yl)spiro[chroman-2,4′-piperidin]-7-yl)propanoate]", "EC50": 856}
{"smiles": "CC(c1cc(C#N)ccc1OC(F)(F)F)N1CCC2(CCc3ccc([C@H](C4CC4)[C@H](C)C(=O)O)cc3O2)CC1", "note": "(stereo partly drawn) [Example 123, (2S,3R)-3-(1′-(1-(5-cyano-2-(trifluoromethoxy)phenyl)ethyl)spiro[chroman-2,4′-piperidin]-7-yl)-3-cyclopropyl-2-methylpropanoic Acid]", "EC50": 30.4}
{"smiles": "CC(c1cc(Cl)ccc1OC(F)(F)F)N1CCC2(CCc3ccc([C@H](C4CC4)[C@H](C)C(=O)O)cc3O2)CC1", "note": "(stereo partly drawn) [Example 134, Sodium (2S,3R)-3-(1′-(1-(5-chloro-2-(trifluoromethoxy)phenyl)ethyl)spiro[chromane-2,4′-piperidin]-7-yl)-3-cyclopropyl-2-methylpropanoate]", "EC50": 1.4}
{"smiles": "CCC(c1cc(C(F)(F)F)ccc1C(F)(F)F)N1CCC2(CCc3ccc([C@H](C4CC4)[C@H](C)C(=O)O)cc3O2)CC1", "note": "(stereo in doubt) [Example 9, (2S,3R)-3-(1′-((S)-1-(2,5-bis(trifluoromethyl)phenyl)propyl)spiro[chroman-2,4′-piperidin]-7-yl)-3-cyclopropyl-2-methylpropanoic Acid]", "EC50": 0.73}
{"smiles": "C[C@H](C(=O)O)[C@H](c1ccc2c(c1)OC1(CC2)CCN(c2ccnc(C(F)(F)F)c2)CC1)C1CC1", "note": "[Example 40, (2S,3R)-3-cyclopropyl-2-methyl-3-(1′-(2-(trifluoromethyl)pyridin-4-yl)spiro-[chroman-2,4′-piperidin]-7-yl)propanoic Acid]", "EC50": 167}
{"target": "T1, human GPR40", "assay": "Inositol Phosphate Turnover (IP1) Assay", "type": "cell-based", "settings": "Human IP1 EC50 (nM), HEK cells stably expressing human GPR40; CisBio IP-One kit; 60 minutes at 37 degrees", "description": "as §1", "units": {"EC50": "nM"}}
{"smiles": "CC(c1cc(C(F)(F)F)cc(Cl)c1F)N1CCC2(CCc3ccc([C@H](C4CC4)[C@H](C)C(=O)O)cc3O2)CC1", "note": "(single isomer, unassigned) [Example 108, (2S,3R)-3-(1′-((R or S)-1-(3-chloro-2-fluoro-5-(trifluoromethyl)phenyl)ethyl)spiro-[chroman-2,4′-piperidin]-7-yl)-3-cyclopropyl-2-methylpropanoic Acid]", "EC50": 15.8}
